pIC50, pKi: −log10 of the molar value. Like-named read-outs stand apart in the source and are kept apart here.
Key:
Assay type in all cases: biochemical
[1] = target: T1, purified recombinant rat FAAH (Rattus norvegicus, UniProt P97612); test: FAAH inhibition enzyme assay (14C-oleamide hydrolysis, Dixon plot), rat enzyme
T1 construct: The truncated rat FAAH (rFAAH) was expressed in E. coli and purified as described; made in house; host or cells: Escherichia coli
T1 sequence (P97612 30-579 limits assumed): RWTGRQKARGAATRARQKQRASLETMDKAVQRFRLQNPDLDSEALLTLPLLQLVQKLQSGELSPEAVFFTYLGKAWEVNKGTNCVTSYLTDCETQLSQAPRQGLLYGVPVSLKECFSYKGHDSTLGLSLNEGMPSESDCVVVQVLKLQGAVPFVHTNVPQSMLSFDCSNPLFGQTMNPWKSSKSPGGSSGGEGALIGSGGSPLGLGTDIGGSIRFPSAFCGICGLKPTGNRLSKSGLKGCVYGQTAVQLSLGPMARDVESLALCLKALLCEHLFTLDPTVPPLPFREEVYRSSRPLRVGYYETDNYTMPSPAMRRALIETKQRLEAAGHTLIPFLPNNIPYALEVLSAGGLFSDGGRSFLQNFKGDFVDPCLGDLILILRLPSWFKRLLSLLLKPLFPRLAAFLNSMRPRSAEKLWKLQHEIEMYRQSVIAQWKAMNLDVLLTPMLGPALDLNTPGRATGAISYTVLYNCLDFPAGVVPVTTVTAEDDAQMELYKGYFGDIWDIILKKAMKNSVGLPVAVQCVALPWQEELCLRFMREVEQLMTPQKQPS
Description: The purified recombinant rFAAH was used in the inhibition assays unless otherwise indicated.
The ^14C-labeled oleamide (substrate) and oleic acid (product) were extracted with EtOAc and analyzed by TLC.

[2] = target: T2, triacylglycerol hydrolase (TGH) (Mus musculus, UniProt Q8VCT4); test: Activity based protein profiling (proteome-wide selectivity screening, FP-Rh), TGH; settings: Table 4; for TGH selectivity (value in parentheses): ratio TGH IC50 / FAAH IC50 (fold selectivity for FAAH); for pIC50: activity based protein profiling
T2 construct: with FP-Rh in brain and heart membrane proteome; from tissue; host or cells: brain and heart membrane proteome
T2 sequence (Q8VCT4 19-565): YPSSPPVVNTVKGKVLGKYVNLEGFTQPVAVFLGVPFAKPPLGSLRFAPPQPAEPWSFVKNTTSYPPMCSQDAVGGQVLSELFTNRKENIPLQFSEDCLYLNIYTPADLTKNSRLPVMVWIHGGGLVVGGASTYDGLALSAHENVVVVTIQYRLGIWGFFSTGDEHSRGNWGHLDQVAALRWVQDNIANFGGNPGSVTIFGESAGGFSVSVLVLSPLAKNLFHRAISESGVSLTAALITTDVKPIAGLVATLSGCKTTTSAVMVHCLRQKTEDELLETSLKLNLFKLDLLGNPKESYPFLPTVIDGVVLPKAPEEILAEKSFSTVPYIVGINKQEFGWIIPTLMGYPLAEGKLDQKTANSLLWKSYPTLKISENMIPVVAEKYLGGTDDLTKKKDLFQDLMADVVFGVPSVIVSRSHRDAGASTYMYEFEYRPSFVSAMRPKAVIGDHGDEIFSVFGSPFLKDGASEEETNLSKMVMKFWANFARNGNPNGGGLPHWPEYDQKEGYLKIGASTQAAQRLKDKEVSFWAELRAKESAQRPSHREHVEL
Description: (§1) Enzyme targets such as FAAH, KIAA1363, and TGH are labeled at the left margin.

[3] = target: T3, KIAA1363 (Mus musculus, UniProt Q8BLF1); test: Activity based protein profiling (proteome-wide selectivity screening, FP-Rh), KIAA1363; settings: Table 4; for pIC50: activity based protein profiling
T3 construct: with FP-Rh in brain and heart membrane proteome; from tissue; host or cells: brain and heart membrane proteome
T3 sequence (Q8BLF1 1-408): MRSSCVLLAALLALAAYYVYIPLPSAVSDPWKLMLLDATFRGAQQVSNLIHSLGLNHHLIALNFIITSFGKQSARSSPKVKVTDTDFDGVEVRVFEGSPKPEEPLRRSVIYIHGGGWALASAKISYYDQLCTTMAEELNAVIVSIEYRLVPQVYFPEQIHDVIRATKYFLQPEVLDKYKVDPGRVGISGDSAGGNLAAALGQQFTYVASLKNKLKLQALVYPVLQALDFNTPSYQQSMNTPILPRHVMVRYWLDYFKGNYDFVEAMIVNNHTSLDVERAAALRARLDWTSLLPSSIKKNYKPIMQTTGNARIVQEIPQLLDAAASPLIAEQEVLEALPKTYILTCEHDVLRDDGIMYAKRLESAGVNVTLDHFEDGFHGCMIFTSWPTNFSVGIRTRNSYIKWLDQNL
Description: as §1

[4] = Table 2, rat FAAH, pH 9 assay conditions, read-out: Ki
[5] = rat FAAH, pH 9 assay conditions

With O=C(CCCCCCc1ccccc1)c1ccc(-c2ccco2)nn1 [13c, 1-(6-(Furan-2-yl)-pyridazin-3-yl)-7-phenylheptan-1-one] the pKi [1, 4] was 7.40.
O=C(CCCCCCc1ccccc1)c1ncc(-c2cccs2)s1 [11d, 7-Phenyl-1-(5-(thiophen-2-yl)-thiazol-2-yl)-heptan-1-one] was tested, and the pKi [1, 4] was 5.70.
With O=C(CCCCCCc1ccccc1)c1nnc(-c2ccco2)o1 [8c] the “TGH selectivity (value in parentheses)” value [2] was 80 and the pKi [1, 4] was 9.25.
For O=C(CCCCCCc1ccccc1)c1nnc(-c2ccccc2)o1 [8e], the “TGH selectivity (value in parentheses)” value [2] was 10, the “KIAA1363 selectivity (value in parentheses)” value ([3]; ratio KIAA1363 IC50 / FAAH IC50 (fold selectivity for FAAH)) was greater than 4000 and the pKi [1, 4] was 8.66. The pKi ([1]; Table 4, read-out: FAAH Ki) was 8.66.
In the case of COC(=O)c1nnc(C(=O)CCCCCCc2ccccc2)o1 [8h, Methyl 5-(7-Phenylheptanoyl)-1,3,4-oxadiazole-2-carboxylate], the pIC50 [2] was 5.70 and the pIC50 [3] was less than 4.00.
In the case of Cn1nnc(C(=O)CCCCCCc2ccccc2)n1 [19a, 1-(2-Methyl-2H-tetrazol-5-yl)-7-phenylheptan-1-one], the “FAAH inhibition (in words)” value [1, 5] was “displayed FAAH inhibition at levels consistent with related compounds”.
O=C(CCCCCCc1ccccc1)c1nnn(-c2ccco2)n1 [15c, 1-(2-(Furan-2-yl)-2H-tetrazol-5-yl)-7-phenylheptan-1-one] showed a pKi [1, 4] of 8.30.
With O=C(CCCCCCc1ccccc1)c1nnc(-c2cccs2)[nH]1 [14d, 7-Phenyl-1-(5-(thiophen-2-yl)-4H-1,2,4-triazol-3-yl)-heptan-1-one] the pKi [1, 4] was less than 6.00.
With O=C(CCCCCCc1ccccc1)c1cnc(-c2ccccn2)o1 [compound 6, 7-Phenyl-1-(2-(pyridin-2-yl)oxazol-5-yl)-heptan-1-one] the “loss of FAAH inhibition” value ([1]; with respect to oxazole 2) was greater than 4000 fold.
O=C(CCCCCCc1ccccc1)c1ncc(-c2ccccn2)o1 [compound 2, reference compound] showed a pIC50 [2] of 6.22.
Work on O=C(CCCCCCc1ccccc1)c1nnc[nH]1 [14a, 7-Phenyl-1-(4H-1,2,4-triazol-3-yl)-heptan-1-one] yielded a pKi [1, 4] of less than 6.00.
For COC(=O)c1cccc(-c2nnc(C(=O)CCCCCCc3ccccc3)s2)n1 [12f, Methyl 6-(5-(7-Phenylheptanoyl)-1,3,4-thiadiazol-2-yl)-picolinate], the pIC50 [3] was less than 4.00.
Work on O=C(CCCCCCc1ccccc1)c1ncc(-c2ccccn2)s1 [11b, 7-Phenyl-1-(5-(pyridin-2-yl)-thiazol-2-yl)-heptan-1-one] yielded a pIC50 [2] of 5.10 and a pIC50 [3] of less than 4.00.
For O=C(CCCCCCc1ccccc1)c1ccc(-c2cccs2)nn1 [13d, 7-Phenyl-1-(6-(thiophen-2-yl)-pyridazin-3-yl)-heptan-1-one], the pKi [1, 4] was 7.34.
With Cn1nnnc1C(=O)CCCCCCc1ccccc1 [19b, 1-(1-Methyl-1H-tetrazol-5-yl)-7-phenylheptan-1-one] the “FAAH inhibition (in words)” value [1, 5] was “displayed FAAH inhibition at levels consistent with related compounds”.
Work on O=C(CCCCCCc1ccccc1)c1noc(-c2ccco2)n1 [10c, 1-(5-(Furan-2-yl)-1,2,4-oxadiazol-3-yl)-7-phenylheptan-1-one] yielded a pKi [1, 4] of 8.07.
O=C(CCCCCCc1ccccc1)c1ncc(-c2ccco2)s1 [11c, 1-(5-(Furan-2-yl)-thiazol-2-yl)-7-phenylheptan-1-one] was tested, and the pKi [1, 4] was 5.82.
O=C(CCCCCCc1ccccc1)c1nnc(-c2ccccn2)[nH]1 [14b, 7-Phenyl-1-(5-(pyridin-2-yl)-4H-1,2,4-triazol-3-yl)-heptan-1-one] showed a pKi [1, 4] of less than 4.00.
O=C(O)c1cccc(-c2cnc(C(=O)CCCCCCc3ccccc3)s2)n1 [11g, 6-(2-(7-Phenylheptanoyl)thiazol-5-yl)-picolinic Acid] was tested, and the pIC50 [2] was 4.52 and the pIC50 [3] was less than 4.00.
With O=C(CCCCCCc1ccccc1)c1nnn(-c2ccccc2)n1 [15e, 7-Phenyl-1-(2-phenyl-2H-tetrazol-5-yl)-heptan-1-one] the pKi [1, 4] was 7.80.
O=C(CCCCCCc1ccccc1)c1nnc(-c2ccco2)[nH]1 [14c, 1-(5-(Furan-2-yl)-4H-1,2,4-triazol-3-yl)-7-phenylheptan-1-one] gave a pKi [1, 4] of less than 6.00.
In the case of O=C(CCCCCCc1ccccc1)c1nc(-c2cccs2)no1 [9d, 7-Phenyl-1-(3-(thiophen-2-yl)-1,2,4-oxadiazol-5-yl)-heptan-1-one], the pKi [1, 4] was 8.80.
Work on O=C(CCCCCCc1ccccc1)c1ccc(-c2ccccn2)nn1 [13b, 7-Phenyl-1-(6-(pyridin-2-yl)-pyridazin-3-yl)-heptan-1-one] yielded a pIC50 [2] of less than 4.00 and a pIC50 [3] of less than 4.00.
For COC(=O)c1nnc(C(=O)CCCCCCc2ccccc2)[nH]1 [14h, Methyl 5-(7-Phenylheptanoyl)-4H-1,2,4-triazole-3-carboxylate], the “FAAH inhibition (in words)” value [1, 5] was “inactive”.
Molecule O=C(CCCCCCc1ccccc1)c1nnn(-c2cccs2)n1 [15d, 7-Phenyl-1-(2-(thiophen-2-yl)-2H-tetrazol-5-yl)-heptan-1-one] has a pKi [1, 4] of 8.07.
In the case of COC(=O)c1cccc(-c2nc(C(=O)CCCCCCc3ccccc3)no2)n1 [10f, Methyl 6-(3-(7-Phenylheptanoyl)-1,2,4-oxadiazol-5-yl)-picolinate], the pIC50 [3] was less than 4.00.
For O=C(CCCCCCc1ccccc1)c1nnc(-c2cccs2)o1 [8d, 7-Phenyl-1-(5-(thien-2-yl)-1,3,4-oxadiazol-2-yl)-heptan-1-one], the pKi [1, 4] was 9.10.
Molecule O=C(CCCCCCc1ccccc1)c1nnc(-c2ccco2)s1 [12c, 1-(5-(Furan-2-yl)-1,3,4-thiadiazol-2-yl)-7-phenylheptan-1-one] has a pKi [1, 4] of 8.13.
O=C(CCCCCCc1ccccc1)c1nnc(-c2cccs2)s1 [12d, 7-Phenyl-1-(5-(thiophen-2-yl)-1,3,4-thiadiazol-2-yl)-heptan-1-one] was tested, and the pKi [1, 4] was 7.57.
O=C(O)c1cccc(-c2noc(C(=O)CCCCCCc3ccccc3)n2)n1 [9g, 6-(5-(7-Phenylheptanoyl)-1,2,4-oxadiazol-3-yl)-picolinic Acid] was tested, and the pIC50 [2] was 4.40 and the pIC50 [3] was less than 4.00.
Molecule O=C(CCCCCCc1ccccc1)c1noc(-c2cccs2)n1 [10d, 7-Phenyl-1-(5-(thiophen-2-yl)-1,2,4-oxadiazol-3-yl)-heptan-1-one] has a pKi [1, 4] of 7.36.
O=C(O)c1cccc(-c2nnc(C(=O)CCCCCCc3ccccc3)s2)n1 [12g, 6-(5-(7-Phenylheptanoyl)-1,3,4-thiadiazol-2-yl)-picolinic Acid] showed a pIC50 [2] of less than 4.00 and a pIC50 [3] of less than 4.00.
O=C(O)c1cccc(-c2ccc(C(=O)CCCCCCc3ccccc3)nn2)n1 [13g, 6-(6-(7-Phenylheptanoyl)-pyridazin-3-yl)-picolinic Acid] gave a pIC50 [2] of less than 4.00 and a pIC50 [3] of less than 4.00.
For O=C(CCCCCCc1ccccc1)c1nc(-c2ccco2)no1 [9c, 1-(3-(Furan-2-yl)-1,2,4-oxadiazol-5-yl)-7-phenylheptan-1-one], the pKi [1, 4] was 9.00.
Molecule COC(=O)c1nnc(C(=O)CCCCCCc2ccccc2)s1 [12h, Methyl 5-(7-Phenylheptanoyl)-1,3,4-thiadiazole-2-carboxylate] has a pIC50 [2] of 4.96 and a pIC50 [3] of less than 4.00.

Reference: patent publication US8987312B2, “Alpha-keto heterocycles as FAAH inhibitors” (The Scripps Research Institute, priority 2008, dated 2015)
